# Experimental data: EPA's ToxRefDB 2
# Legend:
# [1] = test system: mouse; details: Combined chronic toxicity/carcinogenicity, b6c3f1, Oral, Feed, dose end: 24 month, group: systemic
# [2] = test system: mouse; details: Subchronic oral toxicity in rodents, b6c3f1, Feed, dose end: 13 week, group: systemic
# [3] = test system: mouse; details: Subchronic oral toxicity in rodents, Feed, dose end: 13 week, group: systemic, systemic / in life observation / body weight / body weight
# [4] = test system: rat; details: Developmental neurotoxicity range-finding study; sprague dawley; Oral; Feed; group: cannot be grouped; developmental / offspring survival late / [other] / [other] + systemic / in life observation / body weight / litter weight
# [5] = test system: dog; details: Chronic toxicity, beagle, Oral, Feed, dose end: 53 week, group: systemic
# [6] = test system: dog; details: Subchronic oral toxicity in nonrodent, beagle, Gavage/Intubation, dose end: 18 week, group: systemic, systemic / in life observation / body weight / body weight + systemic / in life observation / clinical signs / ataxia + systemic / in life …
# [7] = test system: rat; details: Developmental neurotoxicity study; sprague dawley; Oral; Gavage/Intubation; dose end: 63 PND; group: cannot be grouped; systemic / in life observation / body weight / offspring (pup) weight
# [8] = test system: mouse; details: Chronic toxicity; b6c3f1; Oral; Feed; dose end: 80 week; group: systemic; systemic / in life observation / clinical signs / alopecia + systemic / in life observation / clinical signs / distended abdomens + systemic…
# [9] = test system: rat; details: Subchronic oral toxicity in rodents, other, Feed, dose end: 6 week, group: systemic, systemic / in life observation / body weight / body weight + systemic / in life observation / mortality / mortality
# [10] = test system: mouse; details: Subchronic oral toxicity in rodents, b6c3f1, Feed, dose end: 6 week, group: systemic, systemic / in life observation / mortality / mortality
# [11] = test system: rat; details: Chronic toxicity; other; Oral; Feed; dose end: 74 week; group: systemic; systemic / in life observation / body weight / body weight + systemic / in life observation / clinical signs / convulsions + systemic / in …
# [12] = test system: mouse; details: Carcinogenicity; Oral; Feed; dose end: 24 month; group: systemic; systemic / pathology microscopic / skin / fibrosarcoma + systemic / clinical chemistry / aminopyrine-n-demethylase / aminopyrine-n-…
# [13] = test system: rabbit; details: Prenatal developmental toxicity study, dutch, Oral, Gavage/Intubation, dose end: 18 GD
# [14] = test system: rat; details: Combined chronic toxicity/carcinogenicity; fischer; Oral; Feed; dose end: 24 month; group: systemic; systemic / clinical chemistry / alanine aminotransferase (alt/sgpt) / alanine aminotransferase (alt/sgpt) + systemic / in life observation…
# [15] = test system: dog; details: Chronic toxicity, beagle, Oral, Capsule, dose end: 104 week, group: systemic
# [16] = test system: mouse; details: Carcinogenicity, cd1, Oral, Feed, dose end: 78 week, group: systemic
# [17] = test system: rat; details: Combined chronic toxicity/carcinogenicity, sprague dawley, Oral, Feed, dose end: 24 month, group: systemic
# [18] = test system: dog; details: Subchronic oral toxicity in nonrodent, beagle, Capsule, dose end: 98 day, group: systemic
# [19] = test system: rat; details: Subchronic oral toxicity in rodents, sprague dawley, Feed, dose end: 13 week, group: systemic
# [20] = test system: dog; details: Subchronic oral toxicity in nonrodent, beagle, Capsule, dose end: 93 day, group: systemic
# [21] = test system: rat; details: Prenatal developmental toxicity study, sprague dawley, Oral, Gavage/Intubation, dose end: 15 GD
# [22] = test system: rat; details: Combined chronic toxicity/carcinogenicity, fischer, Oral, Feed, dose end: 104 week, group: systemic
# [23] = test system: dog; details: Chronic toxicity; beagle; Oral; Capsule; dose end: 52 week; group: systemic; systemic / in life observation / clinical signs / defecation (diarrhea) + systemic / in life observation / clinical signs / vomitting + …
# [24] = test system: mouse; details: Carcinogenicity, cd1, Oral, Feed, dose end: 78 week, group: systemic; remark: listed apart in the source
# [25] = test system: rat; details: Subchronic oral toxicity in rodents, fischer, Feed, dose end: 90 day, group: systemic
# [26] = systemic / pathology microscopic / kidney / vacuolization
# [27] = systemic / pathology microscopic / kidney / vacuolization + systemic / in life observation / body weight / body weight + systemic / …
# [28] = systemic / in life observation / body weight / body weight
# [29] = systemic / in life observation / clinical signs / pupillary function (dilation or constriction)
# [30] = systemic / in life observation / clinical signs / pupillary function (dilation or constriction) + systemic / clinical chemistry / protein / …
# [31] = group: developmental, developmental / developmental malformation / bone / [other] + developmental / developmental malformation / bone / full supernumerary + …
# [32] = group: maternal, reproductive / reproductive performance / aborted / aborted + reproductive / reproductive performance / resorptions / resorptions + systemic…
# [33] = systemic / in life observation / clinical signs / emesis + systemic / in life observation / clinical signs / salivation + systemic / in life…
# [34] = systemic / in life observation / clinical signs / soft stools + systemic / in life observation / clinical signs / emesis
# [35] = systemic / in life observation / body weight / body weight gain
# [36] = systemic / in life observation / body weight / body weight + systemic / organ weight / liver / relative to body weight + systemic / clinical…
# [37] = systemic / pathology gross / liver / enlarged + systemic / pathology microscopic / liver / glycogen deposition
# [38] = systemic / pathology gross / liver / enlarged + systemic / pathology microscopic / liver / glycogen deposition + systemic / clinical …
# [39] = systemic / clinical chemistry / aspartate aminotransferase (ast/sgot) / aspartate aminotransferase (ast/sgot)
# [40] = systemic / organ weight / liver / absolute + systemic / organ weight / liver / relative to body weight + systemic / clinical chemistry / …
# [41] = systemic / in life observation / clinical signs / defecation (diarrhea) + systemic / in life observation / clinical signs / vomitting + …
# [42] = group: developmental, developmental / developmental malformation / bone / full supernumerary
# [43] = group: maternal, systemic / in life observation / body weight / body weight gain + systemic / in life observation / water consumption / water consumption
# [44] = group: maternal, systemic / in life observation / body weight / body weight gain + systemic / in life observation / water consumption / water consumption + …
# [45] = systemic / clinical chemistry / creatine phosphokinase / creatine phosphokinase + systemic / organ weight / liver / absolute + systemic / …
# [46] = systemic / pathology microscopic / stomach / dysplasia
# [47] = systemic / in life observation / body weight / body weight gain + systemic / organ weight / brain / relative to body weight + systemic / …
# [48] = systemic / organ weight / liver / relative to body weight + systemic / clinical chemistry / beta globulin / beta globulin + systemic / …
smiles,measurement,setting,value
O=C(O)c1cccc(Cl)n1 [6-Chloro-2-picolinic acid],NOAEL,[1]; [26],300 mg/kg/day
same,LOAEL,[1]; systemic / pathology microscopic / kidney / vacuolization + systemic / in life observation / body weight / body weight,900 mg/kg/day
same,LEL,[1]; [27],900 mg/kg/day
same,NEL,[1]; systemic / pathology microscopic / liver / carcinoma + systemic / organ weight / liver / absolute + systemic / organ weight / liver / …,300 mg/kg/day
same,LEL,[2]; [28],400 mg/kg/day
same,NEL,[2]; [28],150 mg/kg/day
same,LOAEL,[2]; [26],900 mg/kg/day
same,NOAEL,[2]; [27],700 mg/kg/day
same,LEL,[3],800 mg/kg/day
same,LOAEL,[3],800 mg/kg/day
same,NEL,[3],400 mg/kg/day
same,NOAEL,[3],400 mg/kg/day
CC[C@H](C)[C@H]1O[C@]2(C=C[C@@H]1C)C[C@@H]1C[C@@H](C/C=C(\C)[C@@H](O[C@H]3C[C@H](OC)[C@@H](O[C@H]4C[C@H](OC)[C@@H](O)[C@H](C)O4)[C@H](C)O3)[C@@H](C)/C=C/C=C3\CO[C@@H]4[C@H](O)C(C)=C[C@@H](C(=O)O1)[C@]34O)O2.CO[C@H]1C[C@H](O[C@H]2[C@H](C)O[C@@H](O[C@@H]3/C(C)=C/C[C@@H]4C[C@@H](C[C@]5(C=C[C@H](C)[C@@H](C(C)C)O5)O4)OC(=O)[C@@H]4C=C(C)[C@@H](O)[C@H]5OC/C(=C\C=C\[C@@H]3C)[C@]54O)C[C@@H]2OC)O[C@@H](C)[C@@H]1O [Abamectin],LEL,[4],0.876 mg/kg/day
same,LOAEL,[4],0.876 mg/kg/day
same,NEL,[4],0.604 mg/kg/day
same,NOAEL,[4],0.604 mg/kg/day
same,LEL,[5]; [29],0.5 mg/kg/day
same,LOAEL,[5]; [29],0.5 mg/kg/day
same,NEL,[5]; [30],0.25 mg/kg/day
same,NOAEL,[5]; [30],0.25 mg/kg/day
same,LEL,[6],0.5 mg/kg/day
same,LOAEL,[6],0.5 mg/kg/day
same,NEL,[6],0.25 mg/kg/day
same,NOAEL,[6],0.25 mg/kg/day
same,LEL,[7],0.4 mg/kg/day
same,LOAEL,[7],0.4 mg/kg/day
same,NEL,[7],0.2 mg/kg/day
same,NOAEL,[7],0.2 mg/kg/day
ClC1=C(Cl)[C@]2(Cl)[C@H]3[C@H]([C@@H]4C=C[C@H]3C4)[C@@]1(Cl)C2(Cl)Cl [Aldrin],LEL,[8],0.45 mg/kg/day
same,LOAEL,[8],> 0.9 mg/kg/day
same,NEL,[8],< 0.45 mg/kg/day
same,NOAEL,[8],≥ 0.9 mg/kg/day
same,LEL,[9],8 mg/kg/day
same,LOAEL,[9],> 16 mg/kg/day
same,NEL,[9],4 mg/kg/day
same,NOAEL,[9],≥ 16 mg/kg/day
same,LEL,[10],6 mg/kg/day
same,LOAEL,[10],> 12 mg/kg/day
same,NEL,[10],3 mg/kg/day
same,NOAEL,[10],≥ 12 mg/kg/day
same,LEL,[11],1.5 mg/kg/day
same,LOAEL,[11],1.5 mg/kg/day
same,NEL,[11],< 1.5 mg/kg/day
same,NOAEL,[11],< 1.5 mg/kg/day
Cn1cc(-c2ccccc2)c(=O)c(-c2cccc(C(F)(F)F)c2)c1 [Fluridone],LEL,[12],50 mg/kg/day
same,LOAEL,[12],> 50 mg/kg/day
same,NEL,[12],15 mg/kg/day
same,NOAEL,[12],≥ 50 mg/kg/day
same,LEL,[13]; [31],750 mg/kg/day
same,LOAEL,[13]; [31],> 750 mg/kg/day
same,NEL,[13]; [31],300 mg/kg/day
same,NOAEL,[13]; [31],≥ 750 mg/kg/day
same,LEL,[13]; [32],300 mg/kg/day
same,LOAEL,[13]; [32],300 mg/kg/day
same,NEL,[13]; [32],125 mg/kg/day
same,NOAEL,[13]; [32],125 mg/kg/day
same,LEL,[14],25.1 mg/kg/day
same,LOAEL,[14],> 80.8 mg/kg/day
same,NEL,[14],7.65 mg/kg/day
same,NOAEL,[14],≥ 80.8 mg/kg/day
CC(C)Oc1cccc(NC(=O)c2ccccc2C(F)(F)F)c1 [Flutolanil],LOAEL,[15]; [33],250 mg/kg/day
same,NOAEL,[15]; [33],50 mg/kg/day
same,LEL,[15]; [34],50 mg/kg/day
same,NEL,[15]; [34],< 50 mg/kg/day
same,LOAEL,[16]; [35],839 mg/kg/day
same,NOAEL,[16]; systemic / in life observation / body weight / body weight gain + systemic / organ weight / liver / absolute + systemic / organ weight / …,168 mg/kg/day
same,LEL,[16]; systemic / pathology microscopic / liver / vacuolization,162 mg/kg/day
same,NEL,[16]; systemic / pathology microscopic / liver / vacuolization + systemic / in life observation / body weight / body weight gain,32 mg/kg/day
same,LOAEL,[17]; systemic / in life observation / body weight / body weight + systemic / organ weight / liver / relative to body weight,460 mg/kg/day
same,LEL,[17]; [36],460 mg/kg/day
same,NOAEL,[17]; [36],86.9 mg/kg/day
same,NEL,[17]; systemic / organ weight / liver / relative to body weight,86.9 mg/kg/day
same,LEL,[18]; [37],400 mg/kg/day
same,LOAEL,[18]; [37],400 mg/kg/day
same,NEL,[18]; [38],80 mg/kg/day
same,NOAEL,[18]; [38],80 mg/kg/day
same,LEL,[19]; [39],37 mg/kg/day
same,NEL,[19]; [39],< 37 mg/kg/day
same,LOAEL,[19]; systemic / organ weight / liver / absolute + systemic / organ weight / liver / relative to body weight,339 mg/kg/day
same,NOAEL,[19]; [40],44 mg/kg/day
CCc1nn(C)c(C(=O)NCc2ccc(C(C)(C)C)cc2)c1Cl [Tebufenpyrad],LOAEL,[20]; systemic / in life observation / clinical signs / defecation (diarrhea) + systemic / in life observation / clinical signs / vomitting,10 mg/kg/day
same,LEL,[20]; [41],10 mg/kg/day
same,NEL,[20]; [41],2 mg/kg/day
same,NOAEL,[20]; [41],2 mg/kg/day
same,LEL,[21]; [42],90 mg/kg/day
same,LOAEL,[21]; [42],90 mg/kg/day
same,NEL,[21]; [42],50 mg/kg/day
same,NOAEL,[21]; [42],50 mg/kg/day
same,LEL,[21]; [43],50 mg/kg/day
same,LOAEL,[21]; [43],50 mg/kg/day
same,NEL,[21]; [44],15 mg/kg/day
same,NOAEL,[21]; [44],15 mg/kg/day
same,LEL,[22]; [45],0.21 mg/kg/day
same,NEL,[22]; [45],< 0.21 mg/kg/day
same,NOAEL,[22]; [45],0.82 mg/kg/day
same,LOAEL,[22]; [40],6.52 mg/kg/day
same,LEL,[23],6 mg/kg/day
same,LOAEL,[23],6 mg/kg/day
same,NEL,[23],1 mg/kg/day
same,NOAEL,[23],1 mg/kg/day
same,LOAEL,[24]; [35],64.4 mg/kg/day
same,NOAEL,[24]; systemic / in life observation / body weight / body weight gain + systemic / in life observation / body weight / body weight + systemic / …,3.6 mg/kg/day
same,LEL,[24]; [46],4.2 mg/kg/day
same,NEL,[24]; [46],< 4.2 mg/kg/day
same,LOAEL,[25]; [47],29 mg/kg/day
same,NOAEL,[25]; [47],6.8 mg/kg/day
same,LEL,[25]; [48],0.7 mg/kg/day
same,NEL,[25]; [48],< 0.7 mg/kg/day
